Marks after values point to notes of the source that are not given here.
Assays:
Format in all cases: in vivo, female Crl:NMRI mice
[1] = system: sebaceous glands; assay: Topical LCF369 on sebaceous glands of NMRI mice: evaluation of efficacy
Description: (§1) LCF369 is prepared either in a solution of ethanol/propylene glycol (3/7, v/v) or in topical formulations at 1.0, 0.5 or 0.1% for testing in female Crl:NMRI mice. In general, shaved application sites of approximately 2.5 cm^2 on the back of mice are treated twice daily (once on weekends or at study termination) with 50 μl of the LCF369 preparations. To prevent the animals from potential oral uptake of the epicutaneously applied compounds, they are fitted with ruffs and housed individually. After the last application, the animals are euthanised; the treated sites dissected and prepared for histological sections. Hematoxilin/eosin (HE)-stained 3 μm-thick sections are prepared from formalin-fixed, paraffin-embedded tissue. From each animal, one HE-stained section per site is histomorphometrically examined. The entire sections of approximately 10 mm length are evaluated microscopically (200×) for sebaceous glands. The mean size and mean number (per mm^2 dermis) of sectioned alveolar units of the sebaceous glands are determined in a coded fashion with an image analyzer (Axiovision, Zeiss). For statistical analysis, morphometric data are analyzed with a T-test or Mann-Whitney rank sum test. Frozen tissue sections (5 μm) are used for oil red O (lipid) staining.
Groups of 5 mice are treated with 50 μl of 1% or 0.1% LCF369 twice daily (except on weekends, when the animals are treated once daily and on study termination) for 8 days (i.e. 14 applications in total). Four control animals are treated similarly with the vehicle alone. In life, the animals are observed for clinical signs and macroscopic changes of the application sites. One day after the last application, an evaluation is performed. In animals treated with 1.0% LCF369, untreated skin samples distant from the treated sites are also collected in order to assess systemic activity due to percutaneous absorption of LCF369.

[2] = system: sebaceous glands; assay: Topical LCF369 on sebaceous glands of NMRI mice: minimal treatment period; details: for mean size decrease: 1.0% LCF369 twice daily, vs vehicle
Description: as §1
Groups of 4 mice are treated with 1.0% LCF369 twice daily for 2, 4, 6 and 8 days (i.e. up to 16 applications). Control groups remain untreated or are treated with the vehicle alone twice daily for 8 days.

[3] = system: sebaceous glands; assay: Topical LCF369 on sebaceous glands of NMRI mice: minimal effective concentration; details: LCF369 1.0% (w/v) twice daily, 7 days, mean (SD), 6 animals
Description: as §1
LCF369 is tested at 1.0%, 0.5% and 0.1%, groups of 6 mice are treated twice daily for 7 consecutive days. […]

[4] = system: sebaceous glands; assay: Topical LCF369 on sebaceous glands of NMRI mice: duration of action
Description: as §1, with “From each animal, one HE-stained section per site is histomorphometrically examined.” left out, “Frozen tissue sections (5 μm) are used for oil red O (lipid) staining.” left out
A 7-day b.i.d. (twice daily) treatment schedule (except on week ends when the animals were treated once daily) with 1.0% LCF369 is applied to groups of 7 mice which are evaluated on days 8 (one day after the 14th application), 24 and 41. […]

[5] = system: sebaceous glands; assay: Topical LCF369 on sebaceous glands of NMRI mice: clinical service form candidates (0.5% formulations)
Description: as §1, with “Hematoxilin/eosin (HE)-stained 3 μm-thick sections are prepared from formalin-fixed, paraffin-embedded tissue. From each animal, one HE-stained section per site is histomorphometrically examined.” left out, “Frozen tissue sections (5 μm) are used for oil red O (lipid) staining.” left out
Three different formulations containing 0.5% LCF369 are tested; i) emulsion gel with the penetration enhancer Sepa 09 (batch 92.66.01-ra), ii) emulsion gel without a penetration enhancer (batch 9450-05-Ra), and iii) a formulation containing particulate compound (“follicular targeting formulation”). They are evaluated after 9 or 13 applications.

[6] = LCF369-treated vs vehicle-treated skin

O=C(NCCC1CC1)c1ccc(N2CCN(C(=O)c3cc(F)ccc3C(F)(F)F)CC2)nn1 [LCF369, 6-[4-(5-Fluoro-2-trifluoromethylbenzoyl)piperazin-1-yl]pyridazine-3-carboxylic acid (2-cyclopropylethyl)amide]
atrophogenic effects ([1]; 0.1% LCF369, 8 days): little or no atrophogenic effects
reduction of sebaceous glands in sizes (fold) ([1]; 1.0% LCF369, 8 days, p<0.01): about 1.9 fold
differences in numbers and sizes of sebaceous glands at sites distant from the treatments ([1]; 1.0% LCF369, distant sites): no significant differences
histochemical (HE) staining of treated skin, FIG. 2B [1, 6]: fewer and smaller (atrophic) sebaceous glands
oil red O (lipid) staining of treated skin, FIG. 3B [1, 6]: significantly reduced lipids associated with hair shafts
mean size decrease ([2]; after 4 days): 35%
mean size decrease ([2]; after 6 days): 35%
mean size decrease ([2]; after 8 days): 72%
Maximum reduction in sizes and numbers of sebaceous glands ([2]; topical application, compared to untreated skin): up to 75%
Number of sebaceous glandular units [3]: 10.1 (4.0)*** per mm^2 dermis
atrophogenic effect from LCF369 treatment ([4]; 1% LCF369, on day 24): substantially reduced
atrophogenic effect from LCF369 treatment ([4]; 1% LCF369, on day 41): almost completely absent
hyper/parakeratosis and acanthosis in skin sections ([5]; 0.5% LCF369 formulation containing SEPA-9 vs placebo-treated (vehicle-treated) samples): more pronounced
effect on sebaceous glands ([5]; 0.5% LCF369 formulation containing penetration enhancer SEPA-9): significant atrophy of sebaceous glands
